The values below come from patent US7479493B2, “Substituted benzyl amine compounds” (Janssen Pharmaceutica N.V., priority 2006, dated 2009).

The target of one assay is cloned human H3 receptor (Homo sapiens, UniProt Q9Y5N1). As to the kind of experiment: H3 Receptor Binding. As to conditions: cloned human H3 receptor stably expressed in SK-N-MC cells.
The target of a further assay is human H3 receptor (Homo sapiens, UniProt Q9Y5N1). Description: Cyclic AMP Accumulation (reporter gene, SK-N-MC cells). For orientation: In a reporter assay the amount or activity of a reporter protein is the signal.
For another assay, the target named is Rat SERT (Rattus norvegicus, UniProt P31652). Description: biochemical.
The next assay has as its target T1, human SERT (Homo sapiens, UniProt P31645).
T1 construct: expressed in transfected cells; host or cells: HEK293 membranes
Description: Human SERT (3H-citalopram binding, HEK293 membranes). As to conditions: HEK293 membranes expressing the human SERT, rt 1 h. The method, then: Homogenized HEK293 (Human Embryonic Kidney) membranes expressing the human SERT were incubated with ^3H-citalopram (SERT) at rt for 1 h in 50 mM Tris, 120 mM NaCl, 5 mM KCl (pH 7.4). Nonspecific binding was determined in the presence of 10 μM fluoxetine for the SERT. The membranes were washed and the radioactivity was counted as above.

Structures are written as SMILES.

Rat SERT, sequence (P31652 whole entry): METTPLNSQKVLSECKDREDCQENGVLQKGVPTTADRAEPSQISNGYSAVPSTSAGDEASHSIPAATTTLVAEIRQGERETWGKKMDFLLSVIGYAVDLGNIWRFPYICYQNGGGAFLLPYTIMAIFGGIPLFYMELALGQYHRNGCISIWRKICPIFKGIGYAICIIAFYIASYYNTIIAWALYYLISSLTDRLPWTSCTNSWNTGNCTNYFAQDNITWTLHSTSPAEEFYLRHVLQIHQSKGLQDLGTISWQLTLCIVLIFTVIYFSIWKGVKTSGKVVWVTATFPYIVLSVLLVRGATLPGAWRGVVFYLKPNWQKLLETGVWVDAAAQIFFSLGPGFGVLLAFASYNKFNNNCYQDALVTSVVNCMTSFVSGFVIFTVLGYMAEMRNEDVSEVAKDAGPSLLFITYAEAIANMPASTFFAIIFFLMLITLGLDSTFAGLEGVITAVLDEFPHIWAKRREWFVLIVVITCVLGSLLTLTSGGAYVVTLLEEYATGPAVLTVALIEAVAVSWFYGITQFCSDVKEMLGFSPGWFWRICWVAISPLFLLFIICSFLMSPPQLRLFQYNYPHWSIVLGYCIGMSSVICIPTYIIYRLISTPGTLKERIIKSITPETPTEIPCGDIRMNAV
cloned human H3 receptor, sequence (Q9Y5N1 whole entry): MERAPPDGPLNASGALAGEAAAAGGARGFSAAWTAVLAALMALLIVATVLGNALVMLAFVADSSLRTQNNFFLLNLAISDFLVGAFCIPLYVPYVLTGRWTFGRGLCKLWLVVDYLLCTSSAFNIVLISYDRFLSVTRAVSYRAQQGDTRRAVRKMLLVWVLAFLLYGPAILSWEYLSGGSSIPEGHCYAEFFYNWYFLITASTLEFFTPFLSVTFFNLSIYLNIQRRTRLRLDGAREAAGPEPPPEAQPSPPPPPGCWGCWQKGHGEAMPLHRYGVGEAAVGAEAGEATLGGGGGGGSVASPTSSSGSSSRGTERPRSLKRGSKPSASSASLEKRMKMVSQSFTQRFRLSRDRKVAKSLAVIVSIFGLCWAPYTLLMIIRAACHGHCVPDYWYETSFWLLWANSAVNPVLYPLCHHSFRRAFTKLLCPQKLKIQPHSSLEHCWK
human H3 receptor, sequence (Q9Y5N1 whole entry): as above
T1 sequence (P31645 whole entry): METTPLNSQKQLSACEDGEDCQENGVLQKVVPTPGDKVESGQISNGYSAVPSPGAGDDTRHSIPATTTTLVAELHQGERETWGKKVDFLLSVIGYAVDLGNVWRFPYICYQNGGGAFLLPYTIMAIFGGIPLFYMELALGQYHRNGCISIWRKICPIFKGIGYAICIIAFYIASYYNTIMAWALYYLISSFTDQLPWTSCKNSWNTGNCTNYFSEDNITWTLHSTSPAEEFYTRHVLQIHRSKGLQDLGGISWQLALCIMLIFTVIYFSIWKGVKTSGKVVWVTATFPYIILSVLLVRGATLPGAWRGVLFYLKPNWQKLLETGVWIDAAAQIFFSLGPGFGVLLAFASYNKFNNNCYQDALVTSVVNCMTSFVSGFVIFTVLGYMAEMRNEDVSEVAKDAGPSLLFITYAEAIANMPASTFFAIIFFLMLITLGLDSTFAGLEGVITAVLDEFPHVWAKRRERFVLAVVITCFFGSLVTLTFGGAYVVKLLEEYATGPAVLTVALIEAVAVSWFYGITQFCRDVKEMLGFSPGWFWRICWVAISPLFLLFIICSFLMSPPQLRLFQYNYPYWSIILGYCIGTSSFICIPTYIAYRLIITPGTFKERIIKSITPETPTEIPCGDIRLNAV
Description for Rat SERT: The supernatant was removed and re-centrifuged at 15,000 rpm for 30 min. […] Membranes were incubated with 0.6 nM [^3H]-Citalopram plus/minus test compounds for 60 min at 25° C. and harvested by rapid filtration over GF/C glass fiber filters (pretreated with 0.3% polyethylenimine) followed by four washes with ice-cold buffer. Nonspecific binding was defined in the presence of 100 μM fluoxetine.

By Ki is commonly meant the dissociation constant of the complex between target and ligand, obtained from inhibition or displacement. Lower therefore signals tighter binding. For the compound `CN(C)C1CCN(C(=O)c2ccc(CN3CCCCC3)c(Oc3cccnc3)c2)C1` (stereo not drawn) [Example 35, (3-Dimethylamino-pyrrolidin-1-yl)-[4-piperidin-1-ylmethyl-3-(pyridin-3-yloxy)-phenyl]-methanone], the affinity on cloned human H3 receptor, expressed as Ki, was 7 nM. This compound gave a Kb on human H3 receptor of 2.51 nM.

Turning to `CC(C)N1CCN(C(=O)c2ccc(CN3CCCCC3)c(Oc3cccnc3)c2)CC1` [Example 33, (4-Isopropyl-piperazin-1-yl)-[4-piperidin-1-ylmethyl-3-(pyridin-3-yloxy)-phenyl]-methanone], the affinity at cloned human H3 receptor, expressed as Ki, was 2 nM. The Kb on human H3 receptor is 0.316 nM.

As for `O=C(c1ccc(CN2CCCCC2)c(Oc2cccnc2)c1)N1CCN(C2CC2)CC1` [Example 34, (4-Cyclopropyl-piperazin-1-yl)-[4-piperidin-1-ylmethyl-3-(pyridin-3-yloxy)-phenyl]-methanone], the Ki at cloned human H3 receptor was 3 nM. Further, on human H3 receptor, the Kb is 1.26 nM.

Regarding `CNCc1cc(N2CCN(C3CC3)CCC2=O)ccc1Oc1ccc(SC)cc1` [Example 57, 1-Cyclopropyl-4-[3-methylaminomethyl-4-(4-methylsulfanyl-phenoxy)-phenyl]-[1,4]diazepan-5-one], the Ki at Rat SERT amounted to 4 nM; on cloned human H3 receptor, 37 nM.

For the compound `CNCc1cc(C(=O)N2CCC(N3CCOCC3)CC2)ccc1Oc1ccc(SC)cc1` [Example 23, [3-Methylaminomethyl-4-(4-methylsulfanyl-phenoxy)-phenyl]-(4-morpholin-4-yl-piperidin-1-yl)-methanone], the figures for the Ki at Rat SERT and on cloned human H3 receptor were 3 nM and 50 nM, respectively.

For the compound `CNCc1cc(N2CCN(C(C)C)CC2)ccc1Oc1ccc(SC)cc1` [Example 40, [5-(4-Isopropyl-piperazin-1-yl)-2-(4-methylsulfanyl-phenoxy)-benzyl]-methyl-amine], the inhibitory constant (Ki) turned out to be 0.1 nM on Rat SERT and 7 nM at cloned human H3 receptor.

In the case of `CNCc1ccc(C(=O)N2CCN(C3CC3)CC2)cc1Oc1ccc(Cl)c(Cl)c1` [Example 39, (4-Cyclopropyl-piperazin-1-yl)-[3-(3,4-dichloro-phenoxy)-4-methylaminomethyl-phenyl]-methanone], the Ki is 17 nM on Rat SERT and 15 nM at cloned human H3 receptor.

For the compound `CNCc1cc(CN2CCC(=O)N(C(C)C)CC2)ccc1Oc1ccc(Cl)c(Cl)c1` [Example 68, 1-[4-(3,4-Dichloro-phenoxy)-3-methylaminomethyl-benzyl]-4-isopropyl-[1,4]diazepan-5-one], the Ki was determined as 7 nM on Rat SERT and 6300 nM on cloned human H3 receptor.

For the compound `CNCc1cc(CN2CCN(C(C)C)C(=O)C2)ccc1Oc1ccc(Cl)c(Cl)c1` [Example 66, 4-[4-(3,4-Dichloro-phenoxy)-3-methylaminomethyl-benzyl]-1-isopropyl-piperazin-2-one], the Ki on Rat SERT is 6 nM; at cloned human H3 receptor, 2500 nM.

As for `CNCc1cc(N2CCCN(C(C)C)CC2)ccc1Oc1ccc(Cl)c(Cl)c1` [Example 55, [2-(3,4-Dichloro-phenoxy)-5-(4-isopropyl-[1,4]diazepan-1-yl)-benzyl]-methyl-amine], the Ki on Rat SERT came out at 10 nM; at cloned human H3 receptor it was 27 nM.

Turning to `CNCc1cc(N2CCN(C(C)C)CCC2=O)ccc1Oc1ccc(Cl)c(Cl)c1` [Example 73, 4-[4-(3,4-Dichloro-phenoxy)-3-methylaminomethyl-phenyl]-1-isopropyl-[1,4]diazepan-5-one], the Ki at human SERT was found to be 16 nM; at Rat SERT, 12 nM; on cloned human H3 receptor it was 7.7 nM. Moreover, on human H3 receptor, the Kb is 4.47 nM.

Regarding `CNCc1cc(N2CCN(C(C)C)CC2=O)ccc1Oc1ccc(SC)cc1` [Example 49, 4-Isopropyl-1-[3-methylaminomethyl-4-(4-methylsulfanyl-phenoxy)-phenyl]-piperazin-2-one], the figures for the Ki at Rat SERT and on cloned human H3 receptor were 2 nM and 400 nM, respectively.

As for `CNCc1ccc(C(=O)N2CCN(C(C)C)CC2)cc1Oc1ccc(Cl)cc1` [Example 36, [3-(4-Chloro-phenoxy)-4-methylaminomethyl-phenyl]-(4-isopropyl-piperazin-1-yl)-methanone], the Ki on Rat SERT amounted to 28 nM; at cloned human H3 receptor, 4 nM. Further, the Kb at human H3 receptor was 6.31 nM.

For `CNCc1cc(N2CCN(C(C)C)CCC2=O)ccc1Oc1ccc(SC)cc1` [Example 54, 1-Isopropyl-4-[3-methylaminomethyl-4-(4-methylsulfanyl-phenoxy)-phenyl]-[1,4]diazepan-5-one], the inhibition constant (Ki) at Rat SERT worked out at 0.5 nM; on cloned human H3 receptor, 3 nM. Further, the Kb at human H3 receptor is 2 nM.

Consider `CNCc1cc(CN2CCN(C(C)C)CC2)ccc1Oc1ccc(SC)cc1` [Example 61, [5-(4-Isopropyl-piperazin-1-ylmethyl)-2-(4-methylsulfanyl-phenoxy)-benzyl]-methyl-amine], for which the results for the Ki on Rat SERT and at cloned human H3 receptor were 0.8 nM and 2 nM, respectively.

On to `O=C(c1ccc(CNC2CC2)c(Oc2cccnc2)c1)N1CCN(C2CC2)CC1` [Example 31, [4-Cyclopropylaminomethyl-3-(pyridin-3-yloxy)-phenyl]-(4-cyclopropyl-piperazin-1-yl)-methanone], for which the Ki at Rat SERT stood at 1000 nM; on cloned human H3 receptor, 10 nM. In addition, the Kb at human H3 receptor was 1.58 nM.

Regarding `CNCc1cc(N2CCNCC2=O)ccc1Oc1ccc(SC)cc1` [Example 48, 1-[3-Methylaminomethyl-4-(4-methylsulfanyl-phenoxy)-phenyl]-piperazin-2-one], the figures for the Ki at Rat SERT and at cloned human H3 receptor were 0.4 nM and 5500 nM, respectively.

In the case of `Cc1ccc(Oc2cc(C(=O)N3CCN(C4CC4)CC3)ccc2CN(C)C)c(C)n1` [Example 80, (4-Cyclopropyl-piperazin-1-yl)-[4-dimethylaminomethyl-3-(2,6-dimethyl-pyridin-3-yloxy)-phenyl]-methanone], the values for the Ki on Rat SERT and at cloned human H3 receptor were 500 nM and 140 nM, respectively.

Consider `CNCc1cc(N2CCN(C)CC2)ccc1Oc1ccc(SC)cc1` [Example 41, Methyl-[5-(4-methyl-piperazin-1-yl)-2-(4-methylsulfanyl-phenoxy)-benzyl]-amine], for which the Ki on Rat SERT was determined as 0.4 nM; at cloned human H3 receptor it was 210 nM.

As to `CNCc1cc(N2CCCN(C3CC3)CC2)ccc1Oc1ccc(Cl)c(Cl)c1` [Example 56, [5-(4-Cyclopropyl-[1,4]diazepan-1-yl)-2-(3,4-dichloro-phenoxy)-benzyl]-methyl-amine], the results for the Ki on Rat SERT and at cloned human H3 receptor were 16 nM and 25 nM, respectively.

Take `CNCc1cc(C(=O)N2CCN(C3CC3)CC2)ccc1Oc1ccc(F)c(Cl)c1` [Example 21, [4-(3-Chloro-4-fluoro-phenoxy)-3-methylaminomethyl-phenyl]-(4-cyclopropyl-piperazin-1-yl)-methanone]: the values for the Ki at Rat SERT and on cloned human H3 receptor were 19 nM and 32 nM, respectively.

Consider `CNCc1cc(N2CCN(C(C)C)CC2)ccc1Oc1ccc(Cl)c(Cl)c1` [Example 47, [2-(3,4-Dichloro-phenoxy)-5-(4-isopropyl-piperazin-1-yl)-benzyl]-methyl-amine], for which the Ki at Rat SERT was determined as 2 nM; at cloned human H3 receptor, 20 nM.

On to `CSc1ccc(Oc2ccc(CN3CCN(C(C)C)CC3)cc2CN)cc1` [Example 65, 5-(4-Isopropyl-piperazin-1-ylmethyl)-2-(4-methylsulfanyl-phenoxy)-benzylamine], for which the Ki came out at 18 nM on Rat SERT and 4 nM at cloned human H3 receptor.

Turning to `CSc1ccc(Oc2ccc(CN3CCN(C(C)C)CC3)cc2CN(C)C)cc1` [Example 62, [5-(4-Isopropyl-piperazin-1-ylmethyl)-2-(4-methylsulfanyl-phenoxy)-benzyl]-dimethyl-amine], the Ki turned out to be 1 nM at Rat SERT and 21 nM at cloned human H3 receptor.

As for `CNCc1cc(CN2CCN(C(C)C)CC2=O)ccc1Oc1ccc(Cl)c(Cl)c1` [Example 67, 1-[4-(3,4-Dichloro-phenoxy)-3-methylaminomethyl-benzyl]-4-isopropyl-piperazin-2-one], the Ki at Rat SERT was 4 nM; on cloned human H3 receptor it was 6 nM.

Regarding `CC(C)N1CCN(C(=O)c2ccc(CNC3CC3)c(Oc3cccnc3)c2)CC1` [Example 30, [4-Cyclopropylaminomethyl-3-(pyridin-3-yloxy)-phenyl]-(4-isopropyl-piperazin-1-yl)-methanone], the figures for the Ki at Rat SERT and on cloned human H3 receptor were 4000 nM and 3 nM, respectively. The compound also gave a Kb on human H3 receptor of 0.794 nM.

For `CNCc1cc(C(=O)N2CCN(C(C)C)CC2)ccc1Oc1cccnc1` [Example 9, (4-Isopropyl-piperazin-1-yl)-[3-methylaminomethyl-4-(pyridin-3-yloxy)-phenyl]-methanone], the Ki was determined as 420 nM at human SERT, 160 nM at Rat SERT and 1 nM on cloned human H3 receptor.

For `CNCc1cc(N2CC[C@H](N(C)C)C2)ccc1Oc1ccc(SC)cc1` [Example 58, (S)-Dimethyl-{1-[3-methylaminomethyl-4-(4-methylsulfanyl-phenoxy)-phenyl]-pyrrolidin-3-yl}-amine], the Ki at Rat SERT was 6 nM; at cloned human H3 receptor, 300 nM.
